Experimental findings from US10407712B2, “Methods, compositions and kits for high throughput kinase activity screening using mass spectrometry and stable isotopes” (President and Fellows of Harvard College, priority 2008, dated 2019) are described below.

The subject of experiment [1] is HeLa cell lysates. Briefly: KAYAK in vitro kinase assay, lysates of asynchronous, G1/S- or G2/M-arrested HeLa cells. It counts as biochemical, human. Particulars: for G1/S: changed phosphorylation: G1/S phase compared to asynchronously growing HeLa cells; for G2/M: changed phosphorylation: G2/M phase compared to asynchronously growing HeLa cells. As for the experimental part: For cell cycle examples, HeLa cells were synchronized by double thymidine block for G1/S-arrest and by 0.2 μg/ml nocodazole for G2/M-arrest as described (Dephoure et al. 2008 Proc Natl Acad Sci USA 105: 10762-10767). Synchronization was confirmed by flow cytometry.
(§1) For cell lysis, the media were removed, and cells were washed with ice-cold phosphate-buffered saline (PBS) and lysed with ice-cold lysis buffer (10 mM K2HPO4 pH 7.5, 1 mM EDTA, 10 mM MgCl2, 50 mM β-glycerophosphate, 5 mM EGTA, 0.5% Nonidet P-40, 0.1% Brij 35, 0.1% deoxycholic acid, 1mM sodium orthovanadate, 1mM phenylmethyl-sulfonyl fluoride, 5 μg/ml leupeptin and 5 μg/ml pepstatin A). Lysates were centrifuged at 10,000 rpm for 10 min to remove cell debris, and clear supernatant was used for immunoblotting and in vitro kinase assays. Protein concentration was determined by Bradford assay (Biorad, Hercules, Calif.).
(§2) Peptides were synthesized, purified and quantified as described in Yu et al. 2009 Proc Natl Acad Sci USA 106: 11606-11611, hereby incorporated by reference herein in its entirety. Each substrate peptide (250 pmol) was mixed to a final concentration of 5 μM in the 50 μL reaction mixture. Alternatively, reactions were performed using 6 μg cell lysate aliquotes mixed to a final volume of 20 μl. Cell lysate or other kinase source was added to the substrate mixture in 25 mM Tris-Cl, pH 7.5, containing 5 mM ATP, 7.5 mM MgCl2, 0.2 mM EGTA, 7.5 mM β-glycerophosphate, 0.1 mM Na3VO4, and 0.1 mM DTT. The reaction was incubated at 25° C. for 60 min and then terminated by the addition of 100 μl of 1% trifluoroacetic acid (TFA) containing a known amount of an internal standard (typically 20 pmol). Alternatively, the reaction was incubated at 20° C. for 45 min before termination with TFA.
(§3) Forty-five individual in vitro kinase reaction mixtures were combined and desalted by using Sep-Pak C18 cartridge (Waters, Milford, Mass.). Phosphopeptides were enriched by immobilized metal ion chromatography (IMAC) with 20 μl of beads (Phos-Select iron affinity gel; Sigma, St. Louis, Mo.) and subsequently desalted by using Empore C18 solid phase extraction disks (3M, St. Paul, Minn.) as described previously.
(§4) Quantitation of the target peptide-internal standard ratios was performed by first constructing the extracted ion chromatogram for the most abundant charge state for each peptide using a ±10 ppm window. Chromatograms were integrated using Qual/Quan browser (Xcalibur 2.0.5, Thermo Fisher, San Jose, Calif.). Since the phosphorylated peptides generated from the in vitro kinase reactions were chemically identical to the internal standards, they were assumed to have the same ionization efficiency. Therefore, the amount of each phosphorylated peptide was calculated by direct ratio to the internal standard level.
(§5) To test substrate suitability in a multiplexed assay, the phosphorylation activities were measured using […] of each substrate peptide, 6 μg lysate, and 5 mM ATP in a plate format. Reactions proceeded for 60 minutes followed by acidification and the addition of isotope-labeled reference peptides. After pooling 45 samples, phosphopeptide enrichment was followed by liquid-chromatography (LC) separation and on-line peptide detection by high-resolution mass spectrometry.
In order to examine target peptides with cell-cycle-dependent phosphorylation, kinase activities in asynchronously growing HeLa cells were profiled and the profiles were compared with those of cells synchronized in G1/S and G2/M phase using a double-thymidine block and nocodazole arrest, respectively (FIG. 3B).

Experiment [2] concerns HEK293 cell lysates. As to the kind of experiment: KAYAK in vitro kinase assay, individual reactions, lysates of starved, insulin- or EGF-stimulated HEK293 cells. It counts as biochemical, human. To be noted: for E: changed phosphorylation in EGF stimulated condition: EGF-stimulated compared to starved HEK293 cells. As for the experimental part: For stimulation of HEK293 cells or HeLa lines, cells were treated with insulin (100 nM; 10-30 min) EGF (50 ng/ml; 10 min) or phorbol 12-myristate 13-acetate (PMA; 50 or 100 ng/ml; 10 -30 min) at 37° C. for the indicated times after overnight serum-starvation.
as §1, §2, §3, §4, §5
The ability of the peptides to report specific changes in kinase activation after pathway stimulation was examined herein. Lysates from HEK293 cells were collected after insulin or EGF treatment and were compared to their activities in the serum-starved state using the KAYAK approach. Western blot analysis of lysates from cells in which the PI3K and MAPK pathways were activated, as indicated by elevated phospho-Akt and phospho-ERK1/2 levels, respectively, is shown in FIG. 1D. […]

Experiment [3] has as its target T1, recombinant RSK1 (Homo sapiens, UniProt Q15418).
T1 construct: 90 kDa ribosomal S6 kinases 1 (RSK1, 1-735); purchased Cell Signaling Technology (Danvers, Mass.)
Briefly: In vitro peptide phosphorylation by purified RSK. It counts as biochemical.
Source text: Reaction mixture was supplemented with 0.1% BSA. Other conditions were the same as in FIG. 10A.
Purified human active kinases of Akt1 (full length), extracellular signal-regulated kinase 1 (ERK1, 1-379), mitogen-activated protein kinase kinase 1 (MEK1, 1-393), 90 kDa ribosomal S6 kinases 1 (RSK1, 1-735), cAMP-dependent protein kinase (PKA) catalytic subunit-α (PKA Cα, 1-351), protein kinase Cα (PKCα, full length), epidermal growth factor (EGF) receptor (EGFR, 672-1210), platelet-derived growth factor (PDGF) receptor α (PDGFRα, 550-1090), vascular endothelial growth factor (VEGF) receptor 1 (VEGFR1 784-1338), Src (full length), casein kinase 2 (CK2, full length), Aurora A (1-403), AMP-activated protein kinase α1β1γ1 (AMPK α1β1γ1, full length), glycogen synthase kinase-3α (GSK-3α, 1-483) and MAP/microtubule affinity-regulating kinase 1 (MARK 1, full length) were obtained from Cell Signaling Technology (Danvers, Mass.). Cdc2/cyclin B1 (full length) and insulin-like growth factor (IGF)-I receptor (IGFIR, 959-1367) were obtained from Upstate (Temecula, Calif.).
as §2, with “Each substrate peptide (250 pmol) was mixed to a final concentration of 5 μM in the 50 μL reaction mixture.” left out
It was observed that basal phosphorylation of these peptides was not affected by knockdown and likely was the result of remaining RSK isoforms or other basophilic kinases (FIG. 5C).

The subject of experiment [4] is PI3K and MAPK pathways. Briefly: KAYAK profiling of cancer cell lines with or without gefitinib: PI3K and MAPK activity. The experiment is classed as cell-based, human. As for the experimental part:
MCF7 and MBA-MB231 cells were maintained in DMEM supplemented with 10% FBS. Sum159 cells were maintained in Ham's F12 media supplemented with 5% FBS, 5μg/ml hydrocortisone. MCF10A, MCF10A, ErbB2, MCF10A/IGFR, and MCF10A/H-Ras^G12V cells were generously provided by J. Brugge (Debnath et al. 2002 Cell 111: 29-40; Irie et al. 2005 J Cell Biol 171: 1023-1034; Reginato et al. 2003 Nat Cell Biol 5: 733-740) and were maintained in 50/50 DMEM/F12 media supplemented with 5% horse serum, 20 ng/ml EGF, 100 ng/ml cholera toxin, 10 μg/ml insulin, and 500 ng/ml hydrocortisone. Breast cancer cells were treated also with 1 μM of gefitinib (LC laboratories) for 24 h before lysis and KAYAK analysis. The mutation data was obtained from Wellcome Trust Sanger Institute Cancer Genome Project Web site (Hollestele et al. 2007 Mol Cancer Res 5:195-201).
as §2
In tumors, activating mutations are often found in core signaling pathways (McLendon et al. 2008 Nature 455: 1061-1068). […]. The cell lines were chosen to represent the highly heterogeneous nature of breast cancer.

T1 sequence (Q15418 whole entry): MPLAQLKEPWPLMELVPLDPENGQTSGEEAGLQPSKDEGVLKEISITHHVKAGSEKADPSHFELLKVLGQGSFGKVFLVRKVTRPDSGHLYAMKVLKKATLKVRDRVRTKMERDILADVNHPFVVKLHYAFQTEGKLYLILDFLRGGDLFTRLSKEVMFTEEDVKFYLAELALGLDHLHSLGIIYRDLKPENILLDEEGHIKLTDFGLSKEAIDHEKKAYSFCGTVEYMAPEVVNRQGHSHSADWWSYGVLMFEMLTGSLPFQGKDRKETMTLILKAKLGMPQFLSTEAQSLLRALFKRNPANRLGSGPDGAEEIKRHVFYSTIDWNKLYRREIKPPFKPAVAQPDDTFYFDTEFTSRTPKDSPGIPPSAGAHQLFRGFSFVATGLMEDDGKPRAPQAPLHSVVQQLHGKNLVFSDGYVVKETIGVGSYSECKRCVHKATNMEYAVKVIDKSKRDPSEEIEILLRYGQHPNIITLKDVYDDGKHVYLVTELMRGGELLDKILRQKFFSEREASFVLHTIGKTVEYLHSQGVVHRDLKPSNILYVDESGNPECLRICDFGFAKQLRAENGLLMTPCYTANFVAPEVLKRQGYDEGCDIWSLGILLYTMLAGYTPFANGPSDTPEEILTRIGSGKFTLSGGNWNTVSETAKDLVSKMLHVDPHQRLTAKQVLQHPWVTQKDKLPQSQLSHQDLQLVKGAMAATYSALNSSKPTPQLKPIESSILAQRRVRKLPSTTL

For the compound “VKRQSSTPSAPFR (The sequence was designed and synthesized) [B7]”, in experiment [1], the “G1/S: changed phosphorylation” value was “−− (A change of more than +4 and −4 fold is indicated by “++” and “−−”, respectively.)”; the “G2/M: changed phosphorylation” value was “−− (A change of more than +4 and −4 fold is indicated by “++” and “−−”, respectively.)”.

Turning to “FKNIVTPRTPPFR (The sequence was designed and synthesized) [D10]”, the “G2/M: changed phosphorylation” value in experiment [1] is “++ (A change of more than +4 and −4 fold is indicated by “++” and “−−”, respectively.)”.

On to “PSTNSSPVLKPFR (The sequence was designed and synthesized) [A12]”, for which the “G2/M: changed phosphorylation” value in experiment [1] is “+ (A change of more +2 fold and −2 fold is indicated by “+” and “−”, respectively.)”.

In the case of “PKRKVSSAEGPFR (The sequence was designed and synthesized) [B6]”, in experiment [2], the “E: changed phosphorylation in EGF stimulated condition” value (“E: changed phosphorylation” below) was “+ (A change of more +2 fold and −2 fold is indicated by “+” and “−”, respectively.)”. In experiment [2] (EGF-stimulated vs serum-starved HEK293 lysate), the “increase in phosphorylation after EGF” value turned out to be 3 fold. Further, the “phosphorylation by recombinant RSK1 in vitro” value (“phosphorylation … in vitro” for short) in experiment [3] is listed as “robustly phosphorylate”. The “G2/M: changed phosphorylation” value in experiment [1] is “− (A change of more +2 fold and −2 fold is indicated by “+” and “−”, respectively.)”.

Take `COc1cc2ncnc(Nc3ccc(F)c(Cl)c3)c2cc1OCCCN1CCOCC1` [gefitinib]: the “activation of MAPK after treatment” value in experiment [4] (HeLa cells, 1 μM) was “not to be affected”. The “activity in PI3K and MAPK pathway after treatment” value in experiment [4] (MCF7, 1 μM, 24 h) is on record as “decreased activity”. Moreover, the “MAPK activity after treatment” value in experiment [4] (MCF10A cells overexpressing RasV12, 1 μM, 24 h) is “gefitinib-resistance”; in experiment [4] (MDA-MB231 cells, 1 μM, 24 h), “completely refractory”; in experiment [4] (Sum159 cells, 1 μM, 24 h), “some sensitivity”. The “PI3K and MAPK activity after treatment” value in experiment [4] (MCF10A/ErbB2, 1 μM, 24 h) is “strongly inhibited”; in experiment [4] (MCF10A/IGFR, 1 μM, 24 h) it was “strongly inhibited”; in experiment [4] (normal MCF10A cells, 1 μM, 24 h) it was “strongly inhibited”.

Take “NQDPVSPSLVPFR (The sequence was designed and synthesized) [B5]”: in experiment [1], the “G1/S: changed phosphorylation” value was “−− (A change of more than +4 and −4 fold is indicated by “++” and “−−”, respectively.)”; the “G2/M: changed phosphorylation” value was “− (A change of more +2 fold and −2 fold is indicated by “+” and “−”, respectively.)”.

In the case of “NLLPLSPEEFPFR (The sequence was designed and synthesized) [D7]”, in experiment [1], the “G1/S: changed phosphorylation” value is “−− (A change of more than +4 and −4 fold is indicated by “++” and “−−”, respectively.)”; the “G2/M: changed phosphorylation” value was “−− (A change of more than +4 and −4 fold is indicated by “++” and “−−”, respectively.)”.

Consider “NKRRGSVPILPFR (The sequence was designed and synthesized) [C11]”, for which the “E: changed phosphorylation” value in experiment [2] is “+ (A change of more +2 fold and −2 fold is indicated by “+” and “−”, respectively.)”. In experiment [3], the “phosphorylation … in vitro” value was “robustly phosphorylate”.

For the compound “KKKRFSFKKSPFR (The sequence was designed and synthesized) [G10]”, the “conversion of the substrate” value in experiment [2] (serum-starved HEK293 lysate, 100 μM peptide, 6 μg lysate, 60 min, highest activity peptide) amounted to 18%.

On to “LKLSPSPSSRPFR (The sequence was designed and synthesized) [B11]”, for which, in experiment [1], the “G1/S: changed phosphorylation” value is “+ (A change of more +2 fold and −2 fold is indicated by “+” and “−”, respectively.)”; the “G2/M: changed phosphorylation” value was “++ (A change of more than +4 and −4 fold is indicated by “++” and “−−”, respectively.)”.

Regarding “IPINGSPRTPPFR (The sequence was designed and synthesized) [B4]”, in experiment [2], the “E: changed phosphorylation” value is “+ (A change of more +2 fold and −2 fold is indicated by “+” and “−”, respectively.)”. The “G2/M: changed phosphorylation” value in experiment [1] is “++ (A change of more than +4 and −4 fold is indicated by “++” and “−−”, respectively.)”.

Take “SKRRNSEFEIPFR (The sequence was designed and synthesized) [G5]”: the “E: changed phosphorylation” value in experiment [2] was “+ (A change of more +2 fold and −2 fold is indicated by “+” and “−”, respectively.)”. In experiment [3], the “phosphorylation … in vitro” value is listed as “robustly phosphorylate”.

In the case of “IPTGTTPQRKPFR (The sequence was designed and synthesized) [C2]”, the “increase in phosphorylation in G2/M” value in experiment [1] (G2/M (nocodazole-arrested) HeLa lysate vs asynchronously growing cells) is listed as 19 fold. For the same compound, the “G2/M: changed phosphorylation” value in experiment [1] was “++ (A change of more than +4 and −4 fold is indicated by “++” and “−−”, respectively.)”.
